Measurements published in PMC6393295, “Archaeal NSUN6 catalyzes m^5C72 modification on a wide-range of specific tRNAs” (Nucleic Acids Research, 2018).

Assays:
PhNSun6 (PH1991) [1] = target: T1, PhNSun6 (PH1991) (Pyrococcus horikoshii, UniProt O57712); assay: X-ray crystal structure of the complex, […] A; type: binding; details: co-crystallised with 1 mM ligand, pH 6.5, 16 °C; Rossmann-fold cofactor site; no tRNA
T1 construct: full length (domains mapped to residues 1-389); E. coli Rosetta (DE3); 2 chains in P1 crystal
T1 sequence (O57712 1-389): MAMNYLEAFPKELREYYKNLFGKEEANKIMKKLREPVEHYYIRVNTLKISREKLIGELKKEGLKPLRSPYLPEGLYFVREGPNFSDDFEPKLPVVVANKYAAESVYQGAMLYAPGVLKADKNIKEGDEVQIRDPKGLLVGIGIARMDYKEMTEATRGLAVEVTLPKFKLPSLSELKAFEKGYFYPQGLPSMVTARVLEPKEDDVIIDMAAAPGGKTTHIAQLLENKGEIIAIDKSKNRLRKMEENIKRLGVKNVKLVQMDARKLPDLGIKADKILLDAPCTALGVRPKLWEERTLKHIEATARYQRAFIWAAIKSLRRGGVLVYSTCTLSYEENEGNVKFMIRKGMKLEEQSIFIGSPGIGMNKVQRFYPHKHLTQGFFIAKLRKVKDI

PhNSun6 (PH1991) [2] = target: T1, PhNSun6 (PH1991); assay: X-ray crystal structure of the complex, […] A; type: binding; details: co-crystallised with 1 mM ligand, pH 6.5, 16 °C, Rossmann-fold cofactor site, no tRNA

Nc1ncnc2c1ncn2[C@@H]1O[C@H](CSCC[C@H](N)C(=O)O)[C@@H](O)[C@H]1O [SAH, S-adenosyl-homocysteine]
X-ray crystal structure of the complex, 2.18 A (PhNSun6 (PH1991) [1]): form the binding pocket for the cofactor SAH, as shown in Figure 5B

C[S+](CC[C@H](N)C(=O)O)C[C@H]1O[C@@H](n2cnc3c(N)ncnc32)[C@H](O)[C@@H]1O (stereo partly drawn) [SAM, S-adenosyl-methionine]
X-ray crystal structure of the complex, 2.50 A (PhNSun6 (PH1991) [2]; methyl donor, also turned over with tRNA at 65 °C, pH 7.5): PhNSun6 complexed with SAM, SFG and SAH

Nc1ncnc2c1ncn2[C@@H]1O[C@H](C[C@@H](N)CC[C@H](N)C(=O)O)[C@@H](O)[C@H]1O [SFG, sinefungin]
X-ray crystal structure of the complex, 2.50 A (PhNSun6 (PH1991) [2]): PhNSun6 complexed with SAM, SFG and SAH
